Consider seven compounds from patent US6451341B1, “Time release formulation of vitamins, minerals and other beneficial supplements” (priority 1990, dated 2002).

The test system of experiment [1] is skin tumors. Put plainly: Effects of antioxidants on skin tumor promotion (DMBA initiation + TPA promotion), antioxidants applied with TPA. The experiment is classed as in vivo, mice (SENCAR). The following applies: 30 weeks. The text has this:
In one important aspect of the present invention, the formulation includes at least one antioxidant. The antioxidant is preferably selected from the group consisting of butylated hydroxyanisole, butylated hydroxytoluene and propyl gallate. The inventive formulation may include one, or, more preferably, several of the preferred antioxidants in combination. According to one embodiment, the inventive formulation includes butylated hydroxyanisole (BHA) or butylated hydroxytoluene (BHT), and propyl gallate. BHA, BHT and propyl gallate are all antioxidants used to stabilize cosmetic, pharmaceutical, and food products. It has been reported that these agents protect normal cells against radiation, free radicals, toxic chemicals and chemical carcinogens. […] The SENCAR mouse is a valid testing system for the ability of a compound to inhibit tumor initiation and promotion. A good dose-response relationship exists for 7, 12-dimethylbenzanthracene to initiate skin tumors in these mice and they are sensitive to TPA (12-0-tetradecanoylphorbol-13-acetate) promotion [Slaga(1983) “Multistage Skin Carcinogenesis and Specificity of Inhibitors” in: Modulation and Mediation of Cancer by Vitamins, pp. 10-23.]. Further, the preferred antioxidants of the present invention have been reported to protect against cardiovascular disorders, enhance immune function and increase longevity. The preferred antioxidants of the present invention work synergistically with several vitamins, minerals, amino acids, enzymes, and other antioxidants or free radial scavengers included in the formulation of the present invention as will be described in detail below.

The test system of experiment [2] is spontaneous tumors. Put plainly: Effects of antioxidants in the diet on aging and spontaneous tumor formation in mice. The following applies: 0.5% in normal laboratory chow; 100 SENCAR mice per group. The experiment is classed as in vivo. The source says: Table 2 illustrates the effects of certain antioxidant components of the present formulation on all the known spontaneous tumor formations and longevity in mice.

The subject of experiment [3] is skin cancer. Kind of experiment: Mouse skin carcinogenesis system. The settings on record: given alone. Format: in vivo.
The mark [4] stands for this setting: 0.5 mg applied simultaneously with TPA 2x/wk, 30 female SENCAR mice.

As for `[Se]` [Selenium], the “Tumor Response (% Inhibition)” value in experiment [1] (0.004 mg applied simultaneously with TPA 2x/wk) is on record as 23 % Inhibition.

For the compound `COc1ccc(O)c(C(C)(C)C)c1` [BHA, butylated hydroxyanisole], in experiment [2], the “Increase in Lifespan (%)” value amounted to 132% and the “Spontaneous Tumor Formation (% of Control)” value is 46 % of Control. Further, in experiment [1] (setting [4]), the “Tumor Response (% Inhibition)” value turned out to be 35 % Inhibition.

Regarding `CCCOC(=O)c1cc(O)c(O)c(O)c1` [Propyl gallate, propyl gallate], in experiment [2], the “Increase in Lifespan (%)” value is 127% and the “Spontaneous Tumor Formation (% of Control)” value is listed as 62 % of Control. In experiment [1] (setting [4]), the “Tumor Response (% Inhibition)” value was found to be 40 % Inhibition.

For the compound `CC1=C(/C=C/C(C)=C/C=C/C(C)=C/C=C/C=C(C)/C=C/C=C(C)/C=C/C2=C(C)CCCC2(C)C)C(C)(C)CCC1` [B-carotene, Beta carotene], in experiment [3], the “inhibitory activity in mouse skin carcinogenesis” value was “lack of an inhibitory activity”. Further, the “Tumor Response (% Inhibition)” value in experiment [1] (setting [4]) is recorded as 20 % Inhibition.

Regarding Vitamin E, in experiment [1] (0.1 mg applied simultaneously with TPA 2x/wk), the “Tumor Response (% Inhibition)” value was found to be 25 % Inhibition.

Consider `O=C1O[C@H]([C@@H](O)CO)C(O)=C1O` [Vitamin C], for which the “Tumor Response (% Inhibition)” value in experiment [1] (setting [4]) was 30 % Inhibition.

Consider `Cc1cc(C(C)(C)C)c(O)c(C(C)(C)C)c1` [BHT, butylated hydroxytoluene], for which, in experiment [2], the “Increase in Lifespan (%)” value amounted to 124% and the “Spontaneous Tumor Formation (% of Control)” value is 56 % of Control. Moreover, the “Tumor Response (% Inhibition)” value in experiment [1] (setting [4]) was 32 % Inhibition.
